Assay results as given in PubChem BioAssay AID1845210 (Molecular Pharmacology Branch, DTP, NCI, 2023).

Test system: NCI-H226 complex tumor spheroids, viability
Assay: Anticancer human tumor NCI-H226 cell line growth inhibition;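 further: spheroids exposed to compound for 7 days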;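 on viability, T/C: 100% = DMSO vehicle control viability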
Details: for IC50: curve of first compound; for viability, T/C: stronger effect = lower value
From the text: Multicellular complex tumor spheroid response to DNA repair inhibitors in combination with DNA-damaging drugs
This study explores the anticancer activities of DNA-damaging drugs and inhibitors of DNA damage repair, both as single agents and in combinations. Complex tumor spheroids comprised of malignant cells, endothelial cells and mesenchymal stem cells served as an in vitro model for human solid tumors. This model system incorporates physiologically relevant features and patient-derived or established malignant cell lines with clinically relevant genetic alterations from many tumor types. Twenty-six patient-derived or established malignant cell lines were evaluated representing sarcoma, melanoma, small cell lung cancer (SCLC), non-small cell lung cancer (NSCLC), as well as bladder, ovarian and pancreatic cancers. The concentration ranges selected for each drug and investigational agent were based upon clinically achievable concentrations if the clinical Cmax of the agent was known.
Compounds. The drugs and compounds olaparib (NSC753686), talazoparib (NSC767125), berzosertib (NSC777718), elimusertib (NSC800525), nedisertib (NSC802822), VX-984 (NSC792969), AZD-1390 (NSC803789), temozolomide (NSC362856), topotecan (NSC609699), trabectedin (NSC813783), staurosporine (NSC755774), and gemcitabine (NSC613327) were obtained from the National Cancer Institute (NCI) Developmental Therapeutics Program Chemical Repository. The FDA-approved anticancer drug set is available from the Developmental Therapeutics Program at https://dtp.cancer.gov/organization/dscb/obtaining/available_plates.htm. […] The stock solutions were prepared in dimethyl sulfoxide (DMSO, Sigma-Aldrich, St. Louis, MO, cat. D2650) at 400-fold the tested concentration and stored at -70 degrees C. Prior to their use, the stock solutions were diluted in fresh medium and the final DMSO concentration in the assay was 0.25% (v/v). All drugs and investigational agents were tested over a range starting from a high concentration at or near the clinical Cmax and decreasing in half-log increments. If the clinical Cmax for an agent had not been determined, the highest concentration tested was 10 microM.
Cell Lines. The patient-derived cancer cell (PDC) lines: 156681-154-R-J1-PDC, 283228-195-R-J1-PDC, 287954-098-R-J1-PDC, 292921-168-R-J2-PDC, 349418-098-R-PDC, 425362-245-T-J1-PDC, 556581-035-R-J1-PDC, and BL0293-F563-PDC were received from the NCI Patient-Derived Models Repository (PDMR, https://pdmr.cancer.gov). The established cell lines HS-SY-2 (RRID:CVCL_8719), MPNST, and SYO-1 (RRID:CVCL_7146) were obtained from the Sloan Kettering Institute. The alveolar soft parts sarcoma cell line ASPS-1 (RRID:CVCL_S738) was established at the NCI and grown from internal seed stocks. The following established cell lines were purchased from the American Type Culture Collection (ATCC, Manassas, VA): G-401 (ATCC, cat. CRL-1441, RRID:CVCL_0270), SW982 (ATCC, cat. HTB-93, RRID:CVCL_1734), VA-ES-BJ (ATCC, cat. CRL-2138, RRID:CVCL_1785), NCI-H719 (ATCC, cat. CRL-5837, RRID:CVCL_1582), NCI-H196 (ATCC, cat. CRL-5823, RRID:CVCL_1509), NCI-H841 (ATCC, cat. CRL-5845, RRID:CVCL_1595), NCI-H1618 (ATCC, cat. CRL-5879, RRID:CVCL_1480), NCI-H1876 (ATCC, cat. CRL-5902, RRID:CVCL_1503), DMS 114 (ATCC, cat. CRL-2066; RRID:CVCL_1174), NCI-H211 (ATCC, cat. CRL-5824; RRID:CVCL_1529), and SW 1271 (ATCC, cat. CRL-2177, RRID:CVCL_1716). The small cell lung cancer cell line COR-L88 was purchased from Sigma-Aldrich (cat. 92031917-1VL, RRID:CVCL_1141). The non-small cell lung cancer cell lines NCI-H226 (RRID:CVCL_1544) and NCI-H322M (RRID:CVCL_1557) were established at the NCI and grown from internal seed stocks. Pooled donor human umbilical vein endothelial cells (HUVEC, Lonza, cat. CC-2519) and human mesenchymal stem cells (hMSC, Lonza, cat. PT-2501) were purchased from Lonza (Walkersville, MD).
Cell Culture. All cells were maintained in an incubator at 37 degrees C and 5% CO2 with 95% humidity. […]

[1] = second compound 0.003 µM, first compound 0.00949 µM
[2] = second compound 0.003 µM, first compound 0.03 µM
[3] = second compound 0.003 µM, first compound 0.0949 µM
[4] = second compound 0.003 µM, first compound 0.3 µM
[5] = second compound 0.003 µM, first compound 0.949 µM
[6] = second compound 0.003 µM, first compound 3 µM
[7] = second compound 0.00949 µM, first compound 0.00949 µM
[8] = second compound 0.00949 µM, first compound 0.03 µM
[9] = second compound 0.00949 µM, first compound 0.0949 µM
[10] = second compound 0.00949 µM, first compound 0.3 µM
[11] = second compound 0.00949 µM, first compound 0.949 µM
[12] = second compound 0.00949 µM, first compound 3 µM
[13] = second compound 0.03 µM, first compound 0.00949 µM
[14] = second compound 0.03 µM, first compound 0.03 µM
[15] = second compound 0.03 µM, first compound 0.0949 µM
[16] = second compound 0.03 µM, first compound 0.3 µM
[17] = second compound 0.03 µM, first compound 0.949 µM
[18] = second compound 0.03 µM, first compound 3 µM
[19] = second compound 0.0949 µM, first compound 0.00949 µM
[20] = second compound 0.0949 µM, first compound 0.03 µM
[21] = second compound 0.0949 µM, first compound 0.0949 µM
[22] = second compound 0.0949 µM, first compound 0.3 µM
[23] = second compound 0.0949 µM, first compound 0.949 µM
[24] = second compound 0.0949 µM, first compound 3 µM
[25] = second compound 0.3 µM, first compound 0.00949 µM
[26] = second compound 0.3 µM, first compound 0.03 µM
[27] = second compound 0.3 µM, first compound 0.0949 µM
[28] = second compound 0.3 µM, first compound 0.3 µM
[29] = second compound 0.3 µM, first compound 0.949 µM
[30] = second compound 0.3 µM, first compound 3 µM

| Structure (SMILES) | IC50 (second compound 0.003 µM) | IC50 (second compound 0.00949 µM) | IC50 (second compound 0.03 µM) | IC50 (second compound 0.0949 µM) | IC50 (second compound 0.3 µM) | viability, T/C [1] | viability, T/C [2] | viability, T/C [3] | viability, T/C [4] | viability, T/C [5] | viability, T/C [6] | viability, T/C [7] | viability, T/C [8] | viability, T/C [9] | viability, T/C [10] | viability, T/C [11] | viability, T/C [12] | viability, T/C [13] | viability, T/C [14] | viability, T/C [15] | also measured |
| --- | --- | --- | --- | --- | --- | --- | --- | --- | --- | --- | --- | --- | --- | --- | --- | --- | --- | --- | --- | --- | --- |
| CNCc1ccc(-c2cc(-c3nc(-c4ccc(S(=O)(=O)C(C)C)cc4)cnc3N)on2)cc1 + CC[C@@]1(O)C(=O)OCc2c1cc1n(c2=O)Cc2cc3c(CN(C)C)c(O)ccc3nc2-1 | 1710 nM | 1560 nM | 1700 nM | 1670 nM | 1310 nM | 111% | 116% | 125% | 130% | 89.8% | 12.1% | 99.1% | 112% | 108% | 107% | 87% | 1.35% | 90.5% | 109% | 115% | viability, T/C [16]: 123%; viability, T/C [17]: 97.4%; viability, T/C [18]: 3.86%; viability, T/C [19]: 90.7%; viability, T/C [20]: 105%; viability, T/C [21]: 104%; viability, T/C [22]: 110%; viability, T/C [23]: 96.7%; viability, T/C [24]: 1.91%; viability, T/C [25]: 70.1%; viability, T/C [26]: 76.7%; viability, T/C [27]: 92.8%; viability, T/C [28]: 101%; viability, T/C [29]: 69.5%; viability, T/C [30]: 0.93% |
| Cc1sc2c(c1C)C(c1ccc(Cl)cc1)=NC(CC(=O)Nc1ccc(O)cc1)c1nnc(C)n1-2 (stereo not given) + CC[C@@]1(O)C(=O)OCc2c1cc1n(c2=O)Cc2cc3c(CN(C)C)c(O)ccc3nc2-1 | 1460 nM | 1290 nM | 431 nM | 94 nM | < 9.49 nM | 71.9% | 68.5% | 65.8% | 60.2% | 54% | 43.9% | 69.9% | 62% | 68.9% | 61% | 50% | 43% | 63.9% | 57.9% | 53.9% | viability, T/C [16]: 54.2%; viability, T/C [17]: 45.4%; viability, T/C [18]: 44.6%; viability, T/C [19]: 71.3%; viability, T/C [20]: 52.9%; viability, T/C [21]: 50.5%; viability, T/C [22]: 54.9%; viability, T/C [23]: 43%; viability, T/C [24]: 41.6%; viability, T/C [25]: 50.3%; viability, T/C [26]: 45.8%; viability, T/C [27]: 43.6%; viability, T/C [28]: 44.4%; viability, T/C [29]: 37%; viability, T/C [30]: 27.1% |
| Cn1ncnc1[C@H]1c2n[nH]c(=O)c3cc(F)cc(c23)N[C@@H]1c1ccc(F)cc1 + CC[C@@]1(O)C(=O)OCc2c1cc1n(c2=O)Cc2cc3c(CN(C)C)c(O)ccc3nc2-1 | > 3000 nM | > 3000 nM | > 3000 nM | > 3000 nM | > 3000 nM | 102% | 87.8% | 88.7% | 82.4% | 93.7% | 98.7% | 84.4% | 106% | 88.3% | 95.2% | 82.6% | 91.6% | 89.4% | 80.1% | 92.2% | viability, T/C [16]: 79.9%; viability, T/C [17]: 91.1%; viability, T/C [18]: 91.9%; viability, T/C [19]: 70.8%; viability, T/C [20]: 73.5%; viability, T/C [21]: 66.1%; viability, T/C [22]: 72.2%; viability, T/C [23]: 69.2%; viability, T/C [24]: 77.8%; viability, T/C [25]: 60.5%; viability, T/C [26]: 59%; viability, T/C [27]: 58.9%; viability, T/C [28]: 56.5%; viability, T/C [29]: 59.2%; viability, T/C [30]: 66.9% |
